Calls of active or inactive are those of the source. The rule behind the calls is not given here.
Assays:
[1] = tested on: Fibroblast growth factor receptor 3 (Homo sapiens), P22607 [G697C]; assay: Inhibition of FGFR3 G697C mutant (unknown origin) assessed as remaining activity at 1 uM by Kinome scan method relative to control
[2] = biological target: Dual specificity mitogen-activated protein kinase kinase 2 (Homo sapiens) (UniProt P36507); assay: Inhibition of MEK2 (unknown origin) assessed as remaining activity at 1 uM by Kinome scan method relative to control
Sequence of Dual specificity mitogen-activated protein kinase kinase 2 (Homo sapiens) (P36507 whole entry): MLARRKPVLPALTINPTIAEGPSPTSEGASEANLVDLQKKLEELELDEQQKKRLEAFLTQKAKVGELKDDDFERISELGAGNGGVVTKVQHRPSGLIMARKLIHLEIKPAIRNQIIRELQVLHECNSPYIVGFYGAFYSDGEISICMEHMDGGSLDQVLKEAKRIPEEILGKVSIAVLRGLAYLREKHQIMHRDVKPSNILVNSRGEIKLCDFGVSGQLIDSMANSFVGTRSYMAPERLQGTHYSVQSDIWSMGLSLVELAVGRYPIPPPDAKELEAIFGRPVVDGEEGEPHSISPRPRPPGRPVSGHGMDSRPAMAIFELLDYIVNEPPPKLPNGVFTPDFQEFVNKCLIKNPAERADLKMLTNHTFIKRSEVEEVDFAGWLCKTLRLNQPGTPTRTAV

[3] = Inhibition of PI3K/AKT/mTOR signalling pathway in human RV-1 cells assessed as decrease in AKT phosphorylation at T308 residue at 2.5 uM incubated for 5 days by immunoblot analysis; assay type: cell-based; details: time 5.0 day
[4] = biological target: Membrane-associated tyrosine- and threonine-specific cdc2-inhibitory kinase (Homo sapiens) (UniProt Q99640); assay: Inhibition of PKMYT1 (unknown origin) assessed as remaining activity at 1 uM by Kinome scan method relative to control
Sequence of Membrane-associated tyrosine- and threonine-specific cdc2-inhibitory kinase (Homo sapiens) (Q99640 whole entry): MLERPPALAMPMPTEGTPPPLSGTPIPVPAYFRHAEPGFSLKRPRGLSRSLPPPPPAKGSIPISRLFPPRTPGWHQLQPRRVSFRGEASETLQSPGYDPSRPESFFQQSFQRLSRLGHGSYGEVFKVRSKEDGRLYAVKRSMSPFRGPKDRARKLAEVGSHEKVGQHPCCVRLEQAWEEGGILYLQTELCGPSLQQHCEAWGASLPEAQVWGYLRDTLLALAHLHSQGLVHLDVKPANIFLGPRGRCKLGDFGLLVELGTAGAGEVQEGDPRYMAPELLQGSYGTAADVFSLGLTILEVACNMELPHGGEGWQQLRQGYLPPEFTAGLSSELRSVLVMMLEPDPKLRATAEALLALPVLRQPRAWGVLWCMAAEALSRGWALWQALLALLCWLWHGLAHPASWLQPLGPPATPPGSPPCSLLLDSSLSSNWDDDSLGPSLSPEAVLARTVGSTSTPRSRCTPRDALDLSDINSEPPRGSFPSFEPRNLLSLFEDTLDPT

[5] = biological target: Serine/threonine-protein kinase ULK3 (Homo sapiens) (UniProt Q6PHR2); assay: Inhibition of ULK3 (unknown origin) assessed as remaining activity at 1 uM by Kinome scan method relative to control
Sequence of Serine/threonine-protein kinase ULK3 (Homo sapiens) (Q6PHR2 whole entry): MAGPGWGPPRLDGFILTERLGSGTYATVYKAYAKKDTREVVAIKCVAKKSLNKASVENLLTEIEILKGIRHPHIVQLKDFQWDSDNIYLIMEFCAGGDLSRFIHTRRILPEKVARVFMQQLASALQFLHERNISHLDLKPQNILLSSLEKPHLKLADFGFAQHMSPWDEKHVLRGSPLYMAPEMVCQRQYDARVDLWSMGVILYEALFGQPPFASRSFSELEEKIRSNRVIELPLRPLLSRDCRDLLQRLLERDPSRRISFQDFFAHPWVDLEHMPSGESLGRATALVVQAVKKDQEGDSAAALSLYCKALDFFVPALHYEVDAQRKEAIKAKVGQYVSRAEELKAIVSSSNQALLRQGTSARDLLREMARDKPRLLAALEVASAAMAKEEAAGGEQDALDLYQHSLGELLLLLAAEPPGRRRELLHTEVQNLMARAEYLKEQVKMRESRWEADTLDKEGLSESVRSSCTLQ

[6] = biological target: Vascular endothelial growth factor receptor 3 (Homo sapiens) (UniProt P35916); assay: Inhibition of FLT4 (unknown origin) assessed as remaining activity at 1 uM by Kinome scan method relative to control
[7] = Inhibition of PI3K/AKT/mTOR signalling pathway in human RV-1 cells assessed as decrease in FOXO3A phosphorylation at S253 residue at 2.5 uM incubated for 4 hrs by immunoblot analysis; assay type: cell-based
[8] = biological target: Phosphatidylinositol 4,5-bisphosphate 3-kinase catalytic subunit beta isoform (Homo sapiens) (UniProt P42338); assay: Inhibition of PIK3CB (unknown origin) assessed as remaining activity at 1 uM by Kinome scan method relative to control
[9] = biological target: Tyrosine-protein kinase HCK (Homo sapiens) (UniProt P08631); assay: Inhibition of HCK (unknown origin) assessed as remaining activity at 1 uM by Kinome scan method relative to control
[10] = biological target: Interleukin-1 receptor-associated kinase 4 (Homo sapiens) (UniProt Q9NWZ3); assay: Inhibition of IRAK4 (unknown origin) assessed as remaining activity at 1 uM by Kinome scan method relative to control
[11] = Down regulation of BMX protein expression in human RV-1 cells expressing BMX C496S mutant assessed protein expression level at 2.5 uM pre incubated for 4 hrs followed by compound wash out and additon of CHX and measured after 24 hrs by immunoblot analysis (reference value: 1.01 to 1.13); assay type: functional
[12] = Down regulation of BMX protein expression in human RV-1 cells expressing wild type BMX assessed protein expression level at 2.5 uM pre incubated for 4 hrs followed by compound wash out and additon of CHX and measured after 24 hrs by immunoblot analysis (reference value: 0.98 to 1.01); assay type: functional
[13] = Induction of cell cycle arrest in human RV-1 cells assessed as accumulation of cells at G1 phase at 2.5 uM incubated for 5 days in presence of MK2206 by propidium iodide staining based flow cytometric analysis (reference value: 59.7 %); assay type: functional; details: time 5 day
BaF3 [14] = assay: Antiproliferative activity against mouse BaF3 cells expressing TEL-fused BMX Cys496Ser assessed growth inhibition incubated for 2 to 5 days by CellTiter-Glo assay; assay type: functional, cell-based
[15] = biological target: cGMP-dependent protein kinase 1 (Homo sapiens) (UniProt Q13976); assay: Inhibition of PRKG1 (unknown origin) assessed as remaining activity at 1 uM by Kinome scan method relative to control
[16] = biological target: Serine/threonine-protein kinase RIO3 (Homo sapiens) (UniProt O14730); assay: Inhibition of RIOK3 (unknown origin) assessed as remaining activity at 1 uM by Kinome scan method relative to control
Sequence of Serine/threonine-protein kinase RIO3 (Homo sapiens) (O14730 whole entry, canonical isoform): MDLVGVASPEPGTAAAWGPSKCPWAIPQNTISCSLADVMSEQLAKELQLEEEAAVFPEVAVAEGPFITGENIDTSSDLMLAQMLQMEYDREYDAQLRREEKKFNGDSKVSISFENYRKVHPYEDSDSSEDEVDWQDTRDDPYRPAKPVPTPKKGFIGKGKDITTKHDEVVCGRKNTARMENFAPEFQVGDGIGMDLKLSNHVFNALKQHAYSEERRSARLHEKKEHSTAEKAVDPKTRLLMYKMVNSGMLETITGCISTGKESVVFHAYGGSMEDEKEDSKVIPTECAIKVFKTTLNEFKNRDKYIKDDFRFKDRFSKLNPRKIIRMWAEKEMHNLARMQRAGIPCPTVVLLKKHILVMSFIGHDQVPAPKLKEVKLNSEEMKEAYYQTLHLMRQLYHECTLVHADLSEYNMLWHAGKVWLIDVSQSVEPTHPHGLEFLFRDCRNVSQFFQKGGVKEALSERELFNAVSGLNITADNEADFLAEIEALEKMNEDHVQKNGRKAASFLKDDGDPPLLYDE

[17] = biological target: Casein kinase I isoform delta (Homo sapiens) (UniProt P48730); assay: Inhibition of CSNK1D (unknown origin) assessed as remaining activity at 1 uM by Kinome scan method relative to control
Sequence of Casein kinase I isoform delta (Homo sapiens) (P48730 whole entry, looked up, canonical isoform): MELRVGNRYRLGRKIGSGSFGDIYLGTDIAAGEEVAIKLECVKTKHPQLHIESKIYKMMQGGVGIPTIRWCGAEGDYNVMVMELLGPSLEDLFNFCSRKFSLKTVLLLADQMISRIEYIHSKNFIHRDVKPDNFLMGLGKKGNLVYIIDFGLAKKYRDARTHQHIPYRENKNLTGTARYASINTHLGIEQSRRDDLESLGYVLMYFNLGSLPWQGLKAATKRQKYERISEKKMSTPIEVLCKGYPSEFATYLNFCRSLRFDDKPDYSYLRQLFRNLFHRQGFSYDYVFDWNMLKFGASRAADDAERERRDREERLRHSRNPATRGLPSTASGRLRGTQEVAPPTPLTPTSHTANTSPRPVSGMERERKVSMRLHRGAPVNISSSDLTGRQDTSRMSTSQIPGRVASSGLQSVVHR

LNCaP C4-2 = assay: Antiproliferative activity against human C4-2 cells assessed growth inhibition incubated for 2 to 5 days by CellTiter-Glo assay; assay type: functional; details: time 2-5 day
[18] = biological target: Proto-oncogene tyrosine-protein kinase ROS (Homo sapiens) (UniProt P08922); assay: Inhibition of ROS1 (unknown origin) assessed as remaining activity at 1 uM by Kinome scan method relative to control
[19] = biological target: Ribosomal protein S6 kinase alpha-4 (Homo sapiens) (UniProt O75676); assay: Inhibition of N-terminal kinase domain RPS6KA4 (unknown origin) assessed as remaining activity at 1 uM by Kinome scan method relative to control
BaF3 [20] = assay: Antiproliferative activity against mouse BaF3 cells expressing TEL-fused JAK2 assessed growth inhibition incubated for 2 to 5 days by CellTiter-Glo assay; assay type: functional; details: time 2-5 day
[21] = Inhibition of PI3K/AKT/mTOR signalling pathway in human RV-1 cells assessed as decrease in 4EBP phosphorylation at T37/46 residue at 2.5 uM incubated for 5 days by immunoblot analysis; assay type: cell-based; details: time 5.0 day
[22] = biological target: Ribosomal protein S6 kinase alpha-1 (Homo sapiens) (UniProt Q15418); assay: Inhibition of C-terminal kinase domain RSK1 (unknown origin) assessed as remaining activity at 1 uM by Kinome scan method relative to control
Sequence of Ribosomal protein S6 kinase alpha-1 (Homo sapiens) (Q15418 whole entry, the tested form may be a part): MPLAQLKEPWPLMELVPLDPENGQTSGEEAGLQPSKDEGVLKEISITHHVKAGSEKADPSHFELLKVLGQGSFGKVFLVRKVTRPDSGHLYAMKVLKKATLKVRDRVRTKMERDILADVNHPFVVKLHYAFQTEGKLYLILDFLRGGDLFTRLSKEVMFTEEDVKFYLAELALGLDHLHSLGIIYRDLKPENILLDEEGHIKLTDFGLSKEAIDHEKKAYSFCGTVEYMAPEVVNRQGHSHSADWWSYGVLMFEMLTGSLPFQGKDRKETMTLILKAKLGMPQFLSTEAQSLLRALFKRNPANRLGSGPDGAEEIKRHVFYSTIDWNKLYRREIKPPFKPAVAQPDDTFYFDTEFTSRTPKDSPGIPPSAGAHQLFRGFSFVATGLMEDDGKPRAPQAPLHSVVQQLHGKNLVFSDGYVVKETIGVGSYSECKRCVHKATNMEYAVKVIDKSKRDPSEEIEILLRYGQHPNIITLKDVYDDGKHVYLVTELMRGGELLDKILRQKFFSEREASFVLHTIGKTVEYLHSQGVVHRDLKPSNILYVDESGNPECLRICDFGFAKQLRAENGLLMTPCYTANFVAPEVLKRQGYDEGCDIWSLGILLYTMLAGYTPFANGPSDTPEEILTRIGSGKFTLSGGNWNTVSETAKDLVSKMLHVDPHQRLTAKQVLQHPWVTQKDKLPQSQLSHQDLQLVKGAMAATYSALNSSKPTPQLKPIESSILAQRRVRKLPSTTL

[23] = biological target: Receptor-interacting serine/threonine-protein kinase 1 (Homo sapiens) (UniProt Q13546); assay: Inhibition of RIPK1 (unknown origin) assessed as remaining activity at 1 uM by Kinome scan method relative to control
RV-1 = assay: Antiproliferative activity against human RV-1 cells assessed as reduction in cell viability at 500 to 2500 nM incubated for 5 days in presence of <25 nM MK2206 by CellTiter-Glo assay; assay type: functional, cell-based; details: dose 500-2500 nM, time 5.0 day
[24] = biological target: Serine/threonine-protein kinase PAK 1 (Homo sapiens) (UniProt Q13153); assay: Inhibition of PAK1 (unknown origin) assessed as remaining activity at 1 uM by Kinome scan method relative to control
Sequence of Serine/threonine-protein kinase PAK 1 (Homo sapiens) (Q13153 whole entry): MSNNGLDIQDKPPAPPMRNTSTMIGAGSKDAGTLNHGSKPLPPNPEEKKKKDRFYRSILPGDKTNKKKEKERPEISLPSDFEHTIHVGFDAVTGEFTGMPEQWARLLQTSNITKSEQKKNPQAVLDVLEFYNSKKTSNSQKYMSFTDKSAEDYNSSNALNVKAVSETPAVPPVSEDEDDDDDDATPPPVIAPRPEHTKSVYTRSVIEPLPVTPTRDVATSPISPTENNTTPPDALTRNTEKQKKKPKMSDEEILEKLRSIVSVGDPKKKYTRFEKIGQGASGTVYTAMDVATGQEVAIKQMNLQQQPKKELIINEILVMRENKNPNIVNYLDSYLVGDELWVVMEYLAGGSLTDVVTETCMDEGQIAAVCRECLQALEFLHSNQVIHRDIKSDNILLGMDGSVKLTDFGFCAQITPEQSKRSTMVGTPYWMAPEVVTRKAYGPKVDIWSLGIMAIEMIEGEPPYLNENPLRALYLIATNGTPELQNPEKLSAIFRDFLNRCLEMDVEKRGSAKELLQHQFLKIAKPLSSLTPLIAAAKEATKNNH

[25] = biological target: Platelet-derived growth factor receptor alpha (Homo sapiens) (UniProt P16234); assay: Inhibition of PDGFRalpha (unknown origin) assessed as remaining activity at 1 uM by Kinome scan method relative to control
[26] = biological target: Serine/threonine-protein kinase Nek2 (Homo sapiens) (UniProt P51955); assay: Inhibition of NEK2 (unknown origin) assessed as remaining activity at 1 uM by Kinome scan method relative to control
Sequence of Serine/threonine-protein kinase Nek2 (Homo sapiens) (P51955 whole entry, canonical isoform): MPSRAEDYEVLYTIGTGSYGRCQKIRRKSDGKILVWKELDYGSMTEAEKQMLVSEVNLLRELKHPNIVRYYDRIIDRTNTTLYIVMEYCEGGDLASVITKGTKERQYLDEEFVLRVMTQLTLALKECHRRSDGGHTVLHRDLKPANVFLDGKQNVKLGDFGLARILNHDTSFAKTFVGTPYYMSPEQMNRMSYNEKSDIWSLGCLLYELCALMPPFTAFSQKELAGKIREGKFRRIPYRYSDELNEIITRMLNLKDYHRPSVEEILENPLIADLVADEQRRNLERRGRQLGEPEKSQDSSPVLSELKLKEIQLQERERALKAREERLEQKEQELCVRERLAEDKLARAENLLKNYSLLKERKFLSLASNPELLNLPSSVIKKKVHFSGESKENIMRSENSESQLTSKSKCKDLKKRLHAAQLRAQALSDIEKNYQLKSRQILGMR

[27] = biological target: Phosphorylase b kinase gamma catalytic chain, liver/testis isoform (Homo sapiens) (UniProt P15735); assay: Inhibition of PHKG2 (unknown origin) assessed as remaining activity at 1 uM by Kinome scan method relative to control
[28] = biological target: BDNF/NT-3 growth factors receptor (Homo sapiens) (UniProt Q16620); assay: Inhibition of TRKB (unknown origin) assessed as remaining activity at 1 uM by Kinome scan method relative to control
[29] = biological target: RAC-gamma serine/threonine-protein kinase (Homo sapiens) (UniProt Q9Y243); assay: Inhibition of AKT3 (unknown origin) assessed as remaining activity at 1 uM by Kinome scan method relative to control

Sequence of Fibroblast growth factor receptor 3 (Homo sapiens), P22607 [G697C] (P22607 whole entry G697C): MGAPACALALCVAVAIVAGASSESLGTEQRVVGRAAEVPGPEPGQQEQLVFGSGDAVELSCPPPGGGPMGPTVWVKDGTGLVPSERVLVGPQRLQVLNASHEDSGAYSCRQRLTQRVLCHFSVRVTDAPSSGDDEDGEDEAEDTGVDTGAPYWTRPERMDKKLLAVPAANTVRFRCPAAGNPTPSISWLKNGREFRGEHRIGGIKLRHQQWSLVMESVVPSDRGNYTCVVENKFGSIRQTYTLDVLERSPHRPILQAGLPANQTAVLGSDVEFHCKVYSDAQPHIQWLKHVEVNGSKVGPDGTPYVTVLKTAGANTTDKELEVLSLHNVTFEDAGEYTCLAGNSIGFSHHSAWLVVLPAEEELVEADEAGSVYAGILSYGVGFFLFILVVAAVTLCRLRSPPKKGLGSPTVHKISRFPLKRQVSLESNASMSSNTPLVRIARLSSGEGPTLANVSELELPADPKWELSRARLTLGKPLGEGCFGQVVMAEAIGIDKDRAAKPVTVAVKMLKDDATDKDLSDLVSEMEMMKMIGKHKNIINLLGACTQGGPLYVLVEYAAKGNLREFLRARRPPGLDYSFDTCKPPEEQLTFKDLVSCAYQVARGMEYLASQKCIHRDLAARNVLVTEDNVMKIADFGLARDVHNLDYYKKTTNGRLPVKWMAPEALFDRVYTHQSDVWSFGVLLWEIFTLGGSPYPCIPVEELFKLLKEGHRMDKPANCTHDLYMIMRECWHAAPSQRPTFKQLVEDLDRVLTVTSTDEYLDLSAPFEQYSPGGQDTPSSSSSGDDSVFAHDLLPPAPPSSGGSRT

C=CC(=O)Nc1cc(-n2c(=O)ccc3cnc4ccc(-c5ccc(NS(C)(=O)=O)cc5)cc4c32)ccc1C
Activity [1]: 26% | Activity [2]: 96% | inhibition [3]: Active | Activity [4]: 77% | Activity [5]: 80% | Activity [6]: 72% | inhibition [7]: inactive | Activity [8]: 75% | Activity [9]: 97% | Activity [10]: 84% | Activity [11]: 0.83 | Activity [12]: 0.32 | Activity [13]: 64.2% | IC50 (BaF3 [14]): > 10 µM | Activity [15]: 87% | Activity [16]: 55% | Activity [17]: 84% | GI50 (LNCaP C4-2): > 10 µM | Activity [18]: 81% | Activity [19]: 67% | GI50 (BaF3 [20]): 5.83 µM | inhibition [21]: Active | Activity [22]: 91% | Activity [23]: 87% | Activity (RV-1): Active | Activity [24]: 86% | Activity [25]: 92% | Activity [26]: 79% | Activity [27]: 74% | Activity [28]: 62% | Activity [29]: 75%

From ChEMBL document CHEMBL5715949, “Discovery of a selective irreversible BMX inhibitor for prostate cancer” (ACS Chem Biol, 2013)
